Some test systems named below: MOLT-4; EKVX; MDA-N; SNB-75; SK-MEL-5; HT-29; SK-MEL-2; OVCAR-4; MDA-MB-435; SN12C; HCC 2998; SF-295; SF-539; SK-MEL-28; UACC-62; LOX IMVI; COLO 205; RXF 393; HOP-62; KM12.
Common to all, as to experiment: NCI-60 cell line screen, 48 h

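Method: 48-hour compound exposure of cells in 96-well plates, five concentrations, linear interpolation of endpoints. GI50: concentration for 50% inhibition of growth.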 Active and inactive are the calls of the source. No stated cut-off is given here; in the data, active = GI50 up to about 1.1 µM and inactive = higher.

Take `CCOc1cc2c(cc1O)CC[C@@H]1[C@@H]2CC[C@]2(C)[C@@H](O)CC[C@@H]12`: the GI50 is 0.0401 µM (active) in the test with MOLT-4; 0.497 µM (active) with EKVX; 0.0107 µM (active) in the test with MDA-N; 0.0168 µM (active) in the test with SNB-75; 0.0188 µM (active) with SK-MEL-5; 4.88 µM (inactive) in the test with HT-29. For the same molecule, the GI50 in the test on SK-MEL-2 is 0.118 µM (active); in the test on OVCAR-4, 12.4 µM (inactive); in the test on MDA-MB-435, 0.0112 µM (active); with SN12C it was 0.0778 µM (active); in the test with HCC 2998, 0.532 µM (active); in the test on SF-295, 0.138 µM (active). Moreover, the GI50 was 0.0158 µM (active) in the test on SF-539; 0.443 µM (active) with SK-MEL-28; 0.019 µM (active) in the test on UACC-62; 0.0179 µM (active) in the test with LOX IMVI; 12.7 µM (inactive) in the test on COLO 205; 0.0387 µM (active) with RXF 393. Moreover, the GI50 was 0.0447 µM (active) in the test on HOP-62 and 1.22 µM (inactive) in the test on KM12.
Take `COc1ccc(CCNC(=O)Cc2cc(OC)c(OC)cc2CO)cc1OC`: the GI50 in the test on MOLT-4, with EKVX, with MDA-N, with SNB-75, in the test with SK-MEL-5 and in the test on HT-29 was > 100 µM (inactive) throughout. Moreover, the GI50 in the test with SK-MEL-2, in the test on OVCAR-4, in the test with MDA-MB-435, in the test with SN12C, in the test on HCC 2998 and in the test with SF-295 was > 100 µM (inactive) throughout. The GI50 with SF-539, in the test on SK-MEL-28, in the test with UACC-62, in the test with LOX IMVI, with COLO 205 and with RXF 393 was > 100 µM (inactive) in each case. Also, the GI50 in the test with HOP-62 and in the test on KM12 was > 100 µM (inactive) in each case.
On to `CCCC(=O)OCC1OC(n2cc(F)c(=O)[nH]c2=O)C(F)C1O` (stereo not given), for which the GI50 in the test on MOLT-4 was > 35.6 µM (inactive); with EKVX it was > 71.4 µM (inactive); in the test on MDA-N, 14.9 µM (inactive); in the test on SNB-75 it was > 55 µM (inactive); in the test on SK-MEL-5 it was > 40.4 µM (inactive); with HT-29, > 86.3 µM (inactive). Besides, the GI50 was > 100 µM (inactive) with SK-MEL-2; > 100 µM (inactive) in the test with OVCAR-4; 61.5 µM (inactive) in the test with MDA-MB-435; > 82.8 µM (inactive) in the test with SN12C; > 100 µM (inactive) in the test on HCC 2998; > 27.5 µM (inactive) with SF-295. The GI50 in the test on SF-539 is 0.774 µM (active); in the test with SK-MEL-28, > 100 µM (inactive); in the test on UACC-62, > 31.5 µM (inactive); in the test with LOX IMVI it was 11.4 µM (inactive); in the test on COLO 205 it was 24.5 µM (inactive); in the test on RXF 393 it was > 100 µM (inactive). Also, the GI50 in the test on HOP-62 was 4.57 µM (inactive); in the test with KM12, > 100 µM (inactive).
With `Cc1ccc(S(=O)(=O)Nn2c(O)c(C#N)c(-c3ccc(Cl)cc3)c(C#N)c2=O)cc1`, the GI50 with MOLT-4, in the test with EKVX, in the test on MDA-N, in the test with SNB-75, with SK-MEL-5 and in the test with HT-29 was > 100 µM (inactive) throughout. Also, the GI50 with SK-MEL-2, in the test on OVCAR-4, in the test on MDA-MB-435, in the test with SN12C, in the test on HCC 2998 and in the test on SF-295 was > 100 µM (inactive) throughout. Moreover, the GI50 in the test on SF-539, in the test on SK-MEL-28, in the test with UACC-62, in the test with LOX IMVI, with COLO 205 and with RXF 393 was > 100 µM (inactive) each time. The GI50 in the test on HOP-62 and in the test on KM12 was > 100 µM (inactive) each time.
As to `CC1(C)CC[C@]2(C(=O)O)CC[C@]3(C)C(=CC[C@@H]4[C@@]5(C)C[C@H](O)[C@H](O)[C@@](C)(C(=O)O)[C@@H]5CC[C@]43C)[C@@H]2C1`, the GI50 in the test on MOLT-4, in the test on EKVX, in the test with MDA-N, in the test on SNB-75, with SK-MEL-5 and in the test with HT-29 was > 100 µM (inactive) each time. The GI50 is > 100 µM (inactive) in the test on SK-MEL-2; > 82.2 µM (inactive) in the test with OVCAR-4; > 100 µM (inactive) in the test with MDA-MB-435; > 100 µM (inactive) with SN12C; > 100 µM (inactive) in the test on HCC 2998; > 100 µM (inactive) in the test with SF-295. Further, the GI50 in the test on SF-539 is > 100 µM (inactive); with SK-MEL-28, > 100 µM (inactive); in the test on UACC-62, > 54.6 µM (inactive); with LOX IMVI it was > 100 µM (inactive); in the test with COLO 205, > 100 µM (inactive); in the test on RXF 393 it was > 100 µM (inactive). Moreover, the GI50 with HOP-62 was > 100 µM (inactive); in the test with KM12, > 79.1 µM (inactive).
Consider `COC(=O)NCCc1n[nH]c2c1C(=O)C=C(Nc1ccccc1OC)C2=O`, for which the GI50 with MOLT-4 is 21.8 µM (inactive); with EKVX it was 32.8 µM (inactive); in the test with MDA-N, 18.1 µM (inactive); in the test on SNB-75 it was 28.2 µM (inactive); with SK-MEL-5, 13.7 µM (inactive); in the test on HT-29 it was 28.1 µM (inactive). For the same molecule, the GI50 in the test on SK-MEL-2 was 22.2 µM (inactive); in the test with OVCAR-4, 16.8 µM (inactive); in the test with MDA-MB-435, 17.1 µM (inactive); in the test with SN12C, 40.3 µM (inactive); with HCC 2998, 17.7 µM (inactive); in the test with SF-295, 44.5 µM (inactive). Further, the GI50 in the test on SF-539 was 17.5 µM (inactive); with SK-MEL-28, 38.4 µM (inactive); in the test on UACC-62, 18.7 µM (inactive); in the test with LOX IMVI, 23 µM (inactive); in the test with COLO 205 it was 24.3 µM (inactive); with RXF 393, 94 µM (inactive). Also, the results for the GI50 with HOP-62 and in the test on KM12 were 83.4 µM (inactive) and 24.8 µM (inactive), respectively.
Regarding `O=C1C=C(c2ccccc2)OC1C1Sc2ccccc2NC1=O` (stereo not given), the GI50 was 10.6 µM (inactive) in the test with MOLT-4; 14 µM (inactive) in the test with EKVX; 4.48 µM (inactive) with MDA-N; 5.11 µM (inactive) in the test on SNB-75; 9.51 µM (inactive) with SK-MEL-5; 11.5 µM (inactive) with HT-29. Moreover, the GI50 was 8.51 µM (inactive) in the test on SK-MEL-2; 18.7 µM (inactive) in the test with OVCAR-4; 5.11 µM (inactive) in the test on MDA-MB-435; 9.23 µM (inactive) with SN12C; 5.69 µM (inactive) in the test on HCC 2998; 5.98 µM (inactive) with SF-295. Also, the GI50 with SF-539 is 5.38 µM (inactive); in the test on SK-MEL-28, 9.73 µM (inactive); in the test with UACC-62, 11.9 µM (inactive); in the test on LOX IMVI, 13.6 µM (inactive); with COLO 205 it was 7.73 µM (inactive); with RXF 393 it was 14 µM (inactive). The figures for the GI50 with HOP-62 and in the test on KM12 were 1.04 µM (active) and 7.76 µM (inactive), respectively.
In the case of `CC(=O)OCc1ccc2oc(=O)c(C(=O)Oc3ccccc3)cc2c1`, the GI50 in the test with MOLT-4 was > 100 µM (inactive); with EKVX, 37.8 µM (inactive); in the test with MDA-N, > 100 µM (inactive); in the test with SNB-75, > 100 µM (inactive); in the test with SK-MEL-5, > 100 µM (inactive); in the test with HT-29, 30.1 µM (inactive). The GI50 is > 100 µM (inactive) in the test with SK-MEL-2; > 100 µM (inactive) in the test on OVCAR-4; 61.9 µM (inactive) in the test with MDA-MB-435; 30.1 µM (inactive) in the test with SN12C; > 100 µM (inactive) in the test with HCC 2998; > 100 µM (inactive) in the test on SF-295. Moreover, the GI50 in the test on SF-539 was > 100 µM (inactive); in the test with SK-MEL-28 it was 86.9 µM (inactive); in the test on UACC-62 it was 17.7 µM (inactive); in the test with LOX IMVI it was > 100 µM (inactive); with COLO 205, 30.4 µM (inactive); in the test on RXF 393, 44.6 µM (inactive). The GI50 in the test on HOP-62 and with KM12 was > 100 µM (inactive) throughout.
As to `COc1ccc(C(=C2C(=O)OC(=O)C2=C(C)C)c2ccc(OC)cc2)cc1`, the GI50 in the test with MOLT-4 is 57.4 µM (inactive); in the test on EKVX it was 27 µM (inactive); in the test on MDA-N it was > 100 µM (inactive); in the test with SNB-75 it was > 100 µM (inactive); in the test on SK-MEL-5, > 100 µM (inactive); in the test with HT-29, 48 µM (inactive). Moreover, the GI50 in the test with SK-MEL-2 is 53.8 µM (inactive); in the test with OVCAR-4 it was 29.6 µM (inactive); in the test on MDA-MB-435, > 100 µM (inactive); in the test on SN12C it was > 100 µM (inactive); with HCC 2998, > 100 µM (inactive); with SF-295 it was 73.5 µM (inactive). Further, the GI50 with SF-539 was > 100 µM (inactive); with SK-MEL-28 it was > 100 µM (inactive); with UACC-62, > 100 µM (inactive); with LOX IMVI it was 34.4 µM (inactive); in the test on COLO 205, > 100 µM (inactive); with RXF 393 it was > 100 µM (inactive). Further, the GI50 in the test on HOP-62 is 45.8 µM (inactive); with KM12 it was 29.2 µM (inactive).
Turning to `CC(NNC(=O)c1cc[n+]([BH2-]C#N)cc1)C(F)(F)F` (stereo not given), the GI50 with MOLT-4, in the test with EKVX, in the test with MDA-N, in the test on SNB-75, in the test with SK-MEL-5 and in the test with HT-29 was > 100 µM (inactive) throughout. In addition, the GI50 in the test with SK-MEL-2, in the test with OVCAR-4, in the test with MDA-MB-435, in the test on SN12C, in the test with HCC 2998 and in the test with SF-295 was > 100 µM (inactive) each time. Further, the GI50 in the test with SF-539, with SK-MEL-28, in the test with UACC-62, with LOX IMVI, with COLO 205 and in the test with RXF 393 was > 100 µM (inactive) each time. Moreover, the GI50 with HOP-62 and in the test on KM12 was > 100 µM (inactive) in each case.

For the origin of these results see ChEMBL document CHEMBL1201862, “PubChem BioAssay data set” (2004).
